Assay results published in article PMC6152416, “Pharmacological and Toxicological Screening of Novel Benzimidazole-Morpholine Derivatives as Dual-Acting Inhibitors” (Molecules : A Journal of Synthetic Chemistry and Natural …, 2017).
Like-named read-outs stand apart in the source and are kept apart here.

Columns and labels:
Type in all cases: biochemical
COX-1 = target: T1, COX-1 (Ovis aries, UniProt P05979); assay: Fluorimetric COX-1 inhibition screening kit (BioVision)
T1 construct: purchased BioVision (Milpitas, CA, USA) K548-100
Description: (§1) Inhibitory potency of the compounds on COX-1 and COX-2 enzymes was determined by using fluorimetric COX-1 and COX-2 inhibition screening kits from BioVision (Milpitas, CA, USA). The experimental protocol as described in the guides provided by the supplier was followed. All of the pipetting were performed using a robotized system to increase speed, accuracy and precision. Fluorescence intensities of the samples were kinetically measured at 25 °C for 5–10 min by monitoring emissions at 587 nm after excitation at 535 nm. Two appropriate points (T1 and T2) in the linear range of the plot were chosen and the corresponding fluorescence values (RFU1 and RFU2) were obtained. The slope for all samples including Enzyme Control (EC) was calculated by dividing the net ΔRFU (RFU2 − RFU1) values by the time ΔT (T2 − T1). Percentage of relative inhibition was calculated by using the following equation:% Relative inhibition = (Slope of EC − Slope of S/Slope of EC) × 100 where S is the term representing the tested compound [51, 52]. […] The IC50 values were calculated using the plots of the enzyme activity against concentrations by applying regression analyses.

human recombinant MAO-B = target: T2, human recombinant MAO-B (Homo sapiens, UniProt P27338); assay: MAO inhibition assay (kynuramine, fluorimetric)
T2 sequence (P27338 1-520): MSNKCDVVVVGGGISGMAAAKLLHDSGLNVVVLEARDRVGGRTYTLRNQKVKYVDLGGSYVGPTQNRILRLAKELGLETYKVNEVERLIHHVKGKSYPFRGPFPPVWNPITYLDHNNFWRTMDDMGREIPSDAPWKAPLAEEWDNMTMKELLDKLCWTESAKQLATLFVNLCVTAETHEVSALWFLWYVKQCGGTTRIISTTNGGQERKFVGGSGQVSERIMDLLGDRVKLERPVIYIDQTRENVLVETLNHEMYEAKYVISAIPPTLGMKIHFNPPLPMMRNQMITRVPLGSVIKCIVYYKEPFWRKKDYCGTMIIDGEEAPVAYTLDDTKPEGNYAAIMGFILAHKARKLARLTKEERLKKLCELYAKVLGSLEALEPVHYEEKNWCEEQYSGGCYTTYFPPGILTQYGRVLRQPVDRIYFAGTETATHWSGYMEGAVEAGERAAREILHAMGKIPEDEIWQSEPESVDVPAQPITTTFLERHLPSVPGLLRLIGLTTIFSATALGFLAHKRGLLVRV
Description: (§2) Enzyme activity assays were performed according to the procedure reported by Matsumoto et al. with slight modifications. In order to prevent the destructive effect of light on MAO enzymes, the assays were performed in 96-well black plates. Phosphate buffer solution (0.1 M, pH = 7.4) was used for preparation of stock solutions (5 mg/mL) of both human recombinant MAO-A and MAO-B enzymes. […] The addition of the test compound solution was followed by addition of either MAO-A or MAO-B enzyme (50 μL/well) solutions. After 10 min of incubation at 37 °C, kynuramine (50 μL/well) was added and enzyme-substrate reaction was initiated. The plate was incubated for 20 min at 37 °C and then reaction was terminated by addition of 2 N NaOH (75 μL/well). The fluorimetric reads from the top was performed at 310 nm excitation and 380 nm emission wavelengths.

human recombinant MAO-A = target: T3, human recombinant MAO-A (Homo sapiens, UniProt P21397); assay: MAO inhibition assay (kynuramine, fluorimetric)
T3 sequence (P21397 1-527): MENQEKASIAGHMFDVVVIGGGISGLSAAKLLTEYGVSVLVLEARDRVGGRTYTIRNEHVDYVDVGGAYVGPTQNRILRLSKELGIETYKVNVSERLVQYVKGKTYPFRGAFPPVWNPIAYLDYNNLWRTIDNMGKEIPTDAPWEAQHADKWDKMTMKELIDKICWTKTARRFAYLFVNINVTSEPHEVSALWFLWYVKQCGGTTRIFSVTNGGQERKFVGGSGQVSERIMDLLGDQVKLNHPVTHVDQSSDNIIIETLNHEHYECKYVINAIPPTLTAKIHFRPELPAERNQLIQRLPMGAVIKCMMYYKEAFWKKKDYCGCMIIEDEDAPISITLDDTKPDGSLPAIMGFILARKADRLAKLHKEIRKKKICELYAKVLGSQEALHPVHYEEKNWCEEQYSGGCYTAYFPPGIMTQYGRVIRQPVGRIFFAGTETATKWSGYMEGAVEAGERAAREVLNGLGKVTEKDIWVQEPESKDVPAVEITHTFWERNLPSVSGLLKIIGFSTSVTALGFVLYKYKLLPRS
Description: as §2

COX-2 = target: T4, COX-2 (Homo sapiens, UniProt P35354); assay: Fluorimetric COX-2 inhibition screening kit (BioVision)
T4 construct: purchased BioVision (Milpitas, CA, USA) K547-100
T4 sequence (P35354 18-604): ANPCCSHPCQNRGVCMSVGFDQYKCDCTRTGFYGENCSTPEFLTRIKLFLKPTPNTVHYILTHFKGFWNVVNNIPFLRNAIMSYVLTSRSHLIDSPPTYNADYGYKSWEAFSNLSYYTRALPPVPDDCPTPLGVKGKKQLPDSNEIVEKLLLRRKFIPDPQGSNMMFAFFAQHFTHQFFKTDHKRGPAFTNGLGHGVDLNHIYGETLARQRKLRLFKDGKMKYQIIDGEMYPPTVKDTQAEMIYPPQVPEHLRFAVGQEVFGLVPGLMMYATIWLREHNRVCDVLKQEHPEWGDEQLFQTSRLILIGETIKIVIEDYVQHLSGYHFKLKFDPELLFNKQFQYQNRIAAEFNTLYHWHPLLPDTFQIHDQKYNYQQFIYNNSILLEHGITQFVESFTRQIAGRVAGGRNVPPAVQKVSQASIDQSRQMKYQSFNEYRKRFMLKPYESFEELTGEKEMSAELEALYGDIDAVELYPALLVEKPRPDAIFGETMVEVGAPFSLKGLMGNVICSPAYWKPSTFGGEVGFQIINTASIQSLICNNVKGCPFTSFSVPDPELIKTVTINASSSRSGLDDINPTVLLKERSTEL
Description: as §1

AChE = AChE (Homo sapiens, UniProt P22303)
Description: Inhibition potency of the test compounds against AChE was determined using Ellman’s method. Enzyme solutions were prepared in gelatin solution (1%, w/v), at the concentration of 2.5 units/mL. […] AChE solution (20 µL/well) and test solution (20 µL/well) were added to phosphate buffer solution (140 µL/well, pH 8.0 ± 0.1), and incubated at 25 °C for 5 min. […] The production of the yellow anion was recorded by multimode microplate reader for 10 min at 412 nm. As a control, an identical solution of the enzyme without the inhibitor was processed. The control and the inhibitor readings were corrected with blank-readings. All processes were assayed in four independent determinations.

AChE, sequence (P22303 32-614): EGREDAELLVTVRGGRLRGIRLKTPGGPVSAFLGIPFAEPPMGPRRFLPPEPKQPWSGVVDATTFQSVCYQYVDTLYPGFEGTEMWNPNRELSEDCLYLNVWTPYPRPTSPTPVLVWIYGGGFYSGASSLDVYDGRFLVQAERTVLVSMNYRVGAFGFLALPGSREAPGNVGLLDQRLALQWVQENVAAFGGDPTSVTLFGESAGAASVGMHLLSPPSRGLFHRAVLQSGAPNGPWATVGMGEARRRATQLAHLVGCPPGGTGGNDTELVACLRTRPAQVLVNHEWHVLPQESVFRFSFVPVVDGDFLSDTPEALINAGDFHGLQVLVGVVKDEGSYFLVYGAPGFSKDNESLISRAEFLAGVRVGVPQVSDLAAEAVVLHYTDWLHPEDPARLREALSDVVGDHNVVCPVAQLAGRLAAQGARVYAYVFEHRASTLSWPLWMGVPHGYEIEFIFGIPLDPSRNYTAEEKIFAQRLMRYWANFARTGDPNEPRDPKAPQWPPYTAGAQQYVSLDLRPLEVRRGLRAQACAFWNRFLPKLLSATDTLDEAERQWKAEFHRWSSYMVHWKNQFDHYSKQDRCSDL
T1 sequence (P05979 25-600): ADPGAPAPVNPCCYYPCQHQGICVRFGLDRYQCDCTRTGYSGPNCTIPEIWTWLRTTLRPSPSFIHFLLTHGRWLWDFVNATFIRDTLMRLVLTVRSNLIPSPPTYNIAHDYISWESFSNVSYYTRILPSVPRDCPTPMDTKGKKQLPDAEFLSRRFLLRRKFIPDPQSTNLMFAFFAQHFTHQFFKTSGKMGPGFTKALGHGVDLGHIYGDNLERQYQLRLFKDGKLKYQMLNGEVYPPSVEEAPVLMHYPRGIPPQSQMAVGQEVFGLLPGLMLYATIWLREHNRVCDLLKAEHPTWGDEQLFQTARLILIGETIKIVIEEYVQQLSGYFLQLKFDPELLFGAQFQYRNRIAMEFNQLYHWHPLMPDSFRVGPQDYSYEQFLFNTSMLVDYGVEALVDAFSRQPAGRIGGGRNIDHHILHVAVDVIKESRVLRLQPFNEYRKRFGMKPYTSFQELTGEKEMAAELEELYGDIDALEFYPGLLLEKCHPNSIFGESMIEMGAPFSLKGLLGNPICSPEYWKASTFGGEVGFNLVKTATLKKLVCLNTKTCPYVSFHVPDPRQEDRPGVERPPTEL

| SMILES | COX-1 Inhibition (%) (COX-1; 10^-3 M) | COX-1 Inhibition (%) (COX-1; 10^-4 M) | MAO-B Inhibition (%) (human recombinant MAO-B; 10^-3 M) | MAO-B Inhibition (%) (human recombinant MAO-B; 10^-4 M) | MAO-A Inhibition (%) (human recombinant MAO-A; 10^-3 M) | MAO-A Inhibition (%) (human recombinant MAO-A; 10^-4 M) | COX-2 Inhibition (%) (COX-2; 10^-3 M) | COX-2 Inhibition (%) (COX-2; 10^-4 M) | AChE Inhibition (%) (AChE; 10^-3 M) | AChE Inhibition (%) (AChE; 10^-4 M) | also measured |
| --- | --- | --- | --- | --- | --- | --- | --- | --- | --- | --- | --- |
| c1ccc(COc2ccc(-c3nc4ccccc4n3CCN3CCOCC3)cc2)cc1 [Compound 2f, 2-(4-Benzyloxyphenyl)-1-[2-(morpholin-4-yl)ethyl]-1H-benzimidazole] | 75.37 | 79.08 | 39.32 | 31.14 | 32.14 | 20.65 | 61.23 | 60.20 | 15.75 | 15.75 | IC50 (COX-1): 43.2 µM; COX-1 inhibition at the initial concentrations (COX-1; 10^−3 M and 10^−4 M): more than 50%; inhibition at 10 µM (COX-1; 10^−5 M): 45.4 ± 0.99%; inhibition at 1 µM (COX-1; 10^−6 M): 42.1 ± 0.87%; inhibition at 0.1 µM (COX-1; 10^−7 M): 34.2 ± 0.76%; inhibition at 0.01 µM (COX-1; 10^−8 M): 32.7 ± 0.78%; inhibition at 0.001 µM (COX-1; 10^−9 M): 29.9 ± 0.68%; IC50 (COX-2): 44.9 µM; COX-2 inhibition at the initial concentrations (COX-2; 10^−3 M and 10^−4 M): more than 50%; inhibition at 10 µM (COX-2; 10^−5 M): 47 ± 1.13%; inhibition at 1 µM (COX-2; 10^−6 M, read-out: COX 2 Inhibition %): 40.2 ± 1.24%; inhibition at 0.1 µM (COX-2; 10^−7 M): 35.6 ± 0.91%; inhibition at 0.01 µM (COX-2; 10^−8 M): 31.5 ± 0.84%; inhibition at 0.001 µM (COX-2; 10^−9 M): 28.7 ± 0.63% |
| Brc1ccc(-c2nc3ccccc3n2CCN2CCOCC2)cc1 [Compound 2g, 2-(4-Bromophenyl)-1-[2-(morpholin-4-yl)ethyl]-1H-benzimidazole] | 29.47 | 21.74 | 38.63 | 30.87 | 30.85 | 22.29 | 16.30 | 19.03 | 13.04 | 13.04 | – |
| c1ccc(-c2ccc(-c3nc4ccccc4n3CCN3CCOCC3)cc2)cc1 [Compound 2o, 2-(1,1’-Biphenyl)-1-[2-(morpholin-4-yl)ethyl]-1H-benzimidazole] | 27.63 | 34.00 | 31.12 | 23.54 | 31.85 | 26.19 | 30.76 | 21.48 | 6.33 | 6.33 | – |
| N#Cc1ccc(-c2nc3ccccc3n2CCN2CCOCC2)cc1 [Compound 2k, 2-(4-Cyanophenyl)-1-[2-(morpholin-4-yl)ethyl]-1H-benzimidazole] | 28.63 | 28.13 | 43.22 | 34.29 | 31.99 | 26.86 | 26.39 | 20.46 | 20.45 | 20.45 | – |
| CSc1ccc(-c2nc3ccccc3n2CCN2CCOCC2)cc1 [Compound 2n, 2-(4-Methylthiophenyl)-1-[2-(morpholin-4-yl)ethyl]-1H-benzimidazole] | 39.42 | 32.78 | 34.75 | 32.24 | 32.73 | 24.05 | 30.08 | 33.46 | 12.21 | 12.21 | – |
| FC(F)(F)c1ccc(-c2nc3ccccc3n2CCN2CCOCC2)cc1 [Compound 2l, 2-(4-Trifluoromethylphenyl)-1-[2-(morpholin-4-yl)ethyl]-1H-benzimidazole] | 36.87 | 33.46 | 47.66 | 38.09 | 38.51 | 30.16 | 21.00 | 34.62 | 33.88 | 33.88 | – |
